The target of series [1] is T1, bovine serum albumin (BSA) (Bos taurus, UniProt P02769). The series can be described thus: ProteOn XPR36 SPR array biosensor binding to immobilized BSA. The following applies: for binding to the immobilized BSA (sensorgram): SPR, PBS-T buffer pH 7.4, 25 °C; for koff / kon: bovine, pH 7.4. As for the experimental part:
The GLH sensor chip, consisting of glass prisms coated with gold and an alginate-based layer, was an ideal choice for examining protein-small molecule interactions. The chip was initialized with 50% glycerol for several minutes prior to use.
Following initialization, the GLH sensor chip was washed with 0.5% SDS, 50 mM NaOH and 100 mM HCl, respectively, for 1 min each, at a flow rate of 100 µL/min. PBS-T buffer (10 mM sodium phosphate, 150 mM NaCl, and 0.005% Tween 20, pH 7.4) was then injected in three pulses for baseline stabilization.
One of the six channels was activated with a mixture of EDC (40 mM) and sulfo-NHS (10 mM) in the horizontal direction for 3 min, at a flow rate of 30 µL/min. BSA (2 mg/mL) was diluted to 300 nM in 10 mM sodium acetate (pH 4.0) and immobilized on the channel for 5 min, at a flow rate of 30 µL/min. Next, the channel was blocked by injection of 1 M ethanolamine-HCl for 5 min. […] Baseline equilibration was performed by multiple washes with running buffer (PBS-T) across the chip surface for 1 h.
Each compound was tested at six concentrations using a two-fold dilution series. Gradient concentrations of each compound were simultaneously injected over the BSA-immobilized surface at a flow rate of 30 µL/min in the vertical direction, where the association and dissociation times were 80 s and 60 s, respectively. All interaction analyses were performed at 25 °C.
All sensorgrams for protein binding were collected, processed, and analyzed using the ProteOn Manager software. We utilized two types of reference sources, the standard blank buffer reference, and interspot reference, which was the average response before and after each interaction spot to correct for nonspecific binding. The target protein was washed off in the dissociation phase, which caused baseline drift, although real-time injection of a blank reference can completely correct this baseline drift by subtracting artifacts in real time. The dual references were both subtracted from the interaction spot data to correct for any bulk shifts due to baseline drift and nonspecific binding. Finally, the data for each compound collected over the same target protein were globally fit to a Langmuir 1:1 binding model with a global ka and kd, where ka is the association rate constant and kd is the dissociation rate constant for the protein-small molecule binding. The ratio of (kd/ka) indicated the value for the equilibrium dissociation constant (KD).

In series [2] the target is T1, bovine serum albumin (BSA). Set-up: I (residues 1–183), II (184–376), III (377–583); purchased Sigma-Aldrich; method as in doi:10.1016/j.molstruc.2008.01.013. The following applies: under physiological conditions; cited from earlier work.

T1 sequence (P02769 25-607): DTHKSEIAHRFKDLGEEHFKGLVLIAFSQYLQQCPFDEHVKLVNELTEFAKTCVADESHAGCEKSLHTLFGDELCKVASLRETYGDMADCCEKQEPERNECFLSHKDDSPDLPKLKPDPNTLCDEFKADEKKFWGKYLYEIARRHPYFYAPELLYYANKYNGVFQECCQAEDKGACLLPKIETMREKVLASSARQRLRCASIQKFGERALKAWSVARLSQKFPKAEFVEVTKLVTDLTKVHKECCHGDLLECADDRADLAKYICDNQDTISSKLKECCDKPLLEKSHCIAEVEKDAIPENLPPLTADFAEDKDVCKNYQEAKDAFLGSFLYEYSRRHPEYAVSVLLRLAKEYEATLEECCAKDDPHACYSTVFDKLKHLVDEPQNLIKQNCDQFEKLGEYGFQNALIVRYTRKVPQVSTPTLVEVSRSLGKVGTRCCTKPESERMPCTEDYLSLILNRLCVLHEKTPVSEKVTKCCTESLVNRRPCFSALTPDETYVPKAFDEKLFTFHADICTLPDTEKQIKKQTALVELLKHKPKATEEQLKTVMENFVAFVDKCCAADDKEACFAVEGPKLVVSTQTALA

For `CC[C@]1(O)C[C@H]2CN(CCc3c([nH]c4ccccc34)[C@@](C(=O)OC)(c3cc4c(cc3OC)N(C=O)[C@H]3[C@@](O)(C(=O)OC)[C@H](OC(C)=O)[C@]5(CC)C=CCN6CC[C@]43[C@@H]65)C2)C1` [vincristine, Vincristine, reference compound], in series [1], the Kd was 2560 ± 430 µM, the “binding to the immobilized BSA (sensorgram)” value (“binding to the immobilized BSA” below) was “able to reversibly bind”, the koff came out at 1.96 ± 0.2 s⁻¹ and the kon is 784 M⁻¹ s⁻¹.

On to `OC[C@H]1O[C@@H](OCCc2ccc(O)cc2)[C@H](O)[C@@H](O)[C@@H]1O` [salidroside, Salidroside], for which the “binding to the immobilized BSA” value in series [1] was “no such binding”. The “binding to BSA via spectroscopic investigation” value in series [2] was “could bind to BSA”.

Regarding `C[C@@H]1O[C@@H](O[C@@H]2[C@@H](O)[C@H](OCCc3ccc(O)c(O)c3)O[C@H](CO)[C@H]2OC(=O)/C=C/c2ccc(O)c(O)c2)[C@H](O)[C@H](O)[C@H]1O` [acteoside, Acteoside], in series [1], the Kd was found to be 740 ± 360 µM, the “binding to the immobilized BSA” value is “able to reversibly bind”, the off-rate constant (koff) amounted to 0.09 ± 0.02 s⁻¹ and the on-rate (kon) amounted to 149 M⁻¹ s⁻¹.

Regarding `O=C(/C=C/c1ccc(O)c2c1[C@H](C(=O)O[C@H](Cc1ccc(O)c(O)c1)C(=O)O)[C@@H](c1ccc(O)c(O)c1)O2)O[C@H](Cc1ccc(O)c(O)c1)C(=O)O` [salvianolic acid B, Salvianolic acid B], in series [1], the Kd turned out to be 230 ± 70 µM, the “binding to the immobilized BSA” value is “able to reversibly bind”, the koff is 0.59 ± 0.24 s⁻¹ and the kon was determined as 2500 M⁻¹ s⁻¹.

For the compound `O=C(O)c1cc(O)c(O)c(O)c1` [gallic acid, Gallic acid], the Kd in series [1] was 510 ± 250 µM.

Take Echinacoside: the “binding to the immobilized BSA” value in series [1] is recorded as “able to reversibly bind”.

Regarding `COc1cccc2c1C(=O)c1c(O)c3c(c(O)c1C2=O)C[C@@](O)(C(=O)CO)C[C@@H]3O[C@H]1C[C@H](N)[C@H](O)[C@H](C)O1` [doxorubicin, Doxorubicin, reference compound], in series [1], the “binding to the immobilized BSA” value was “able to reversibly bind”, the koff was found to be 0.73 ± 0.03 s⁻¹ and the kon was found to be 2 M⁻¹ s⁻¹. Moreover, in series [1] (doxorubicin (weakest) versus salvianolic acid B (strongest)), the “difference in affinity for BSA between weakest and strongest binding compound” value is recorded as “greater than 1000 fold”.
